Reference: US9593069B2, “Cyclohexane-1,3-diones for use in the treatment of amyotrophic lateral sclerosis” (Northwestern University, priority 2009, dated 2017)
Values after ≈ are worked out from the molar mass of the structure shown. Where two headings read alike, the source gives them in different places. Peptide text beside a SMILES is read from it. * marks the point of attachment. Cbz = O=C(OCc1ccccc1)*

How the values were obtained:
[1] = test system: PC12 cells that express mutant G93A SOD1; test: High throughput cytotoxicity protection assay (PC12 Protection Assay); type: cell-based
From the text: Cultured cells are utilized to conduct high throughput assays for compounds that protect against mutant SOD1-induced cytotoxicity. Two assays are used: first, in the cytotoxicity protection assay, compounds are screened for their ability to protect cells from the cytotoxic effects of aggregated mutant SOD1, irrespective of mechanism of drug action. Second, in the protein aggregation assay, compounds are screened for their ability to reduce aggregation of mutant SOD1. The high throughput cytotoxicity protection assay is the primary screen and compounds active in the primary screen (and their analogs) move forward into the secondary screen for protein aggregation.
(§1) The high throughput cytotoxicity protection assay was carried out in PC12 cells that express mutant G93A SOD1 as a YFP fusion protein from a doxycycline-inducible promoter (Matsumoto et al., J. Cell. Biol. 2005, 171, 75). […] This idea was tested by examining the sensitivity of PC12 cells to SOD1 aggregates in the presence and absence of proteasome inhibitor MG132. PC12 cells expressing no SOD1, wild type SOD1, G85R SOD1 or G93A SOD1 were grown with or without MG132 (FIG. 1). Cells expressing no SOD1, wild type SOD1 and G85R SOD1 were relatively insensitive to MG132, with an IC50 of approximately 400 nM. […] In these cells, protein aggregation was detected after 24 h and loss of cell viability was detected at approximately 48 h. […] The ability of protein aggregates to induce cell death was examined by treating G93A SOD1-expressing cells with MG132 for 24 h, removing the MG132 by washing and assaying cell viability after another 24 h. Because the loss of cell viability was similar following MG132 removal (FIG. 1, part C), it is likely that mutant SOD1 aggregates contribute directly to cytotoxicity in PC12 cells.
(§2) PC12 cells expressing G93A SOD1 were treated with 100 nM MG132 with or without co-treatment with geldanamycin or radicicol. […] Statistical analysis of the data produced a Z′ value of 0.55, which would predict good performance as a positive control in a high throughput screen (Zhang et al., J. Biomol. Screen 1999, 4(2), 67-73).

primary cortical neurons = test: Neuronal penetration assay (protection from MG132 toxicity); type: cell-based; conditions: for Different from control at 5 SD*: primary cortical neurons, toxic dose of MG132, 5 SD = Standard Deviation (5σ)
Protocol: Neurons are a highly differentiated cell type, and it has been commonly observed that many chemical structures are unable to penetrate into these cells. In many embodiments, a drug used to treat a neurodegenerative disease should desirably penetrate into neurons.
A neuronal penetration assay was developed as follows. […] In order to determine if this compound could protect primary cortical neurons from MG132 toxicity primary cortical neurons were treated with a toxic dose of MG132 together with various concentrations of 5-(3,5-bis(trifluoromethyl)phenyl)cyclohexane-1,3-dione. […] Analogs of 5-(3,5-bis(trifluoromethyl)phenyl)cyclohexane-1,3-dione were then prepared and tested to determine whether chemical modifications would lead to a compound with neuronal cell penetrating ability. […] As summarized in Table 2 below, these analogs also retained protective activity against mutant SOD1 toxicity.

[2] = In vivo pharmacological properties
[3] = test system: PC12 cells expressing G93A mutant SOD1; test: Mutant SOD1 direct protein aggregation assay; type: cell-based
Protocol: as §2
(§3) In PC12 cells that express wild-type SOD1, SOD1 was diffusely localized throughout the cell (Matsumoto et al., J. Cell. Biol 2005, 171(1), 75-85). […] Therefore, these effects are likely to be due to MG132-induced proteasome inhibition, and not due to an off-target effect of MG132.
(§4) The identification of a positive control is a crucial step in assay development. Thus, PC12 cells expressing G85R or G93A mutant SOD1 were treated with MG132 to induce protein aggregation, and then co-treated with candidate chemical suppressors of protein aggregation. […] Both compounds induce heat shock transcription factor HSF-1, which in turn induces the heat shock response (FIG. 4). Treatment with radicicol reduced the proportion of cells with aggregates from 75% to 25%, a sufficient difference to allow visual scoring for compounds with efficacy equal to or greater than radicicol.

[4] = test system: PC12 cells expressing wild-type SOD1; test: Mutant SOD1 direct protein aggregation assay; type: cell-based
From the text: as §3

[5] = test system: PC12 cells expressing G85R SOD1; test: Mutant SOD1 direct protein aggregation assay; type: cell-based
From the text: Compounds that are active in the above assay could theoretically protect against mutant SOD1-induced cytotoxicity through a number of mechanisms, including the following: 1) Compounds could nonspecifically block or reverse protein aggregation via chaperone induction, as observed for radicicol and geldanamycin 2) Compounds could block or reverse the aggregation of a specific aggregated protein form 3) Compounds could interfere with an event downstream of protein aggregation that plays a critical role in mutant SOD1-induced cytotoxicity (e.g., proteasome function). 4) Compounds could act directly on SOD1 in a manner that prevents mutant SOD1 aggregation. These possibilities were tested using an assay that directly measures protein aggregation. In addition, unlike the high throughput cytotoxicity protection assay, the protein aggregation assay is based on G85R SOD1; this broadens the scope of the screening strategy, and should eliminate compounds with highly specific activity (i.e., G93A SOD1 limited) against protein aggregation.
as §3, §4
To allow this assay to be used in a high-throughput manner, a Cellomics Arrayscan® high content microscopy system was used for screening and quantification. […]

[6] = test system: PC12 cells expressing G93A SOD1; test: MG132 sensitivity, cell survival by viability stain calcein-AM; type: cell-based; conditions: for toxicity (cell survival): 100 nM
Protocol: (§5) FIGS. 1A-C. Proteasome inhibition is selectively toxic to PC12 cells expressing mutant G93A SOD1. Cell survival was determined using the viability stain calcein-AM.
as §1

[7] = test system: PC12 cells expressing no SOD1, wild type SOD1 and G85R SOD1; test: as above; type: cell-based; conditions: Rattus norvegicus, PC-12, read-out: IC50 (loss of cell viability)
Protocol: as §5, §1

Caco-2 = Caco-2 permeability; type: in vitro ADME
Protocol: High membrane permeability is required for effective GI absorption and optimal bioavailability. Passive permeability is typically assessed in the PAMPA artificial membrane assay (Kansy et al., J. Med. Chem. 2002, 45(8), 1712-1722). Cell-based permeability determinations using the Caco-2 cell assay are more resource intensive but more predictive of active transport or efflux in vivo (Artursson et al., Adv. Drug. Deliv. Rev. 2001, 46(1-3), 27-43). Caco-2 assays are performed as needed during SAR development.

Solubility = type: physicochemical; conditions: aqueous solution
Protocol: Because compounds are stored in DMSO, it is necessary to determine aqueous solubility of initial hit compounds and their analogs. High solubility in aqueous solution is necessary for high GI absorption, bioavailability, and for chemical formulation. Compounds should be soluble in aqueous solution at >10 μg/ml. Solubility of >50 μg/ml is preferred.

[8] = Human metabolic potential; type: in vitro ADME
Protocol: (§6) Liver Cytochrome P450 (CYP450) enzymes are the major route for xenobiotic metabolism and microsomal and hepatocyte stability is the best predictor of pharmacokinetic half-life. Cross-species comparisons of metabolism in liver microsomes can predict potential issues with liver toxicity in humans. Selected active compounds are tested in liver microsomes from efficacy species (mouse), toxicity species (rat, dog, monkey), and humans for metabolic stability.

[9] = Mouse metabolic potential; type: in vitro ADME
Protocol: as §6

Plasma stability = type: in vitro ADME
Protocol: Plasma stability of active compounds is assessed in efficacy species (mouse), toxicity species (rat, dog, monkey), and human cells.

[10] = Rattus norvegicus, PC-12; read-out: PC12 Protection Assay (Average EC50)

O=C1CC(=O)CC(C2CC2c2cc(C(F)(F)F)cc(C(F)(F)F)c2)C1 (stereo not drawn)
EC50 [1, 10]: ~3.5 µM | Different from control at 5 SD* (primary cortical neurons): YES

CCCCCCCCCCC(=O)OC1=CC(=O)CC(c2cc(C(F)(F)F)cc(C(F)(F)F)c2)C1 (stereo not drawn)
EC50 [1, 10]: ~1.5 µM

CC(Oc1cc(C(F)(F)F)cc(C(F)(F)F)c1)C1CC(=O)CC(=O)C1 (stereo not drawn)
EC50 ([1]; Rattus norvegicus, PC-12, read-out: PC12 Protection Assay (Average EC50)): ~4 µM | Different from control at 5 SD* (primary cortical neurons): YES

O=C1CC(=O)CC(c2cc(C(F)(F)F)cc(C(F)(F)F)c2)C1 [5-(3,5-bis(trifluoromethyl)phenyl)cyclohexane-1,3-dione]
half-life ([2]; blood): ~3.5 h | blood brain barrier penetration ([2]; in vivo): penetration of the blood brain barrier | volume of distribution in vivo ([2]; in vivo): surprisingly small volume of distribution | oral availability ([2]; in vivo, po): good oral availability | EC50 ([1]; Rattus norvegicus, PC-12; read-out: potency): ~1.5 µM | protection of cultured PC12 cells / protective activity against mutant SOD1 toxicity ([1]; toxic effects of MG132): protects cultured PC12 cells from the toxic effects of MG132 | protection of primary cortical neurons from MG132 toxicity (primary cortical neurons; various concentrations, FIG. 6): no dose of this compound was effective in protecting the primary cortical neurons

CC(C)C[C@@H](C=O)NC(=O)[C@H](CC(C)C)NC(=O)[C@H](CC(C)C)NC(=O)OCc1ccccc1 [MG132] (Cbz-Leu-Leu-Leu-aldehyde)
cells with protein aggregates following treatment ([3]; cells expressing G93A mutant SOD1): 75% | protein aggregation after treatment [4]: no aggregation was observed | cells containing protein aggregates after treatment ([5]; cells expressing G85R SOD1): up to 75% | toxicity (cell survival) ([6]; 24 hr, any of the cell lines): no toxicity | toxicity (cell survival) ([6]; after 48 hours): selectively toxic to the G93A SOD1 cell line | sensitivity of G93A SOD1 cells relative to the other cell lines ([6]; G93A SOD1 vs no SOD1, wild type SOD1, G85R SOD1 cells): approximately 5 fold | IC50 ([6]; Rattus norvegicus, PC-12, read-out: IC50 (loss of cell viability)): ~0.075 µM | IC50 [7]: ~0.4 µM

CC(C)C[C@H](NC(=O)[C@H](Cc1ccccc1)NC(=O)c1cnccn1)B(O)O [bortezomib]
sensitivity of PC12 cell lines to proteasome inhibitor, compared with MG132 [6]: Qualitatively similar results

O=C1CC(=O)CC(c2cc(C(F)(F)F)cc(C(F)(F)F)c2)C1 [drawing 215]
EC50 [1, 10]: ~1.5 µM

O=C1CC(=O)CC(c2cc(C(F)(F)F)cc(C(F)(F)F)c2)C1 [drawing 217]
Caco-2 predicted permeability (Caco-2): high predicted permeability | Caco-2 A − B (Caco-2; A − B): 38 ×10⁻⁶ cm/s | solubility (Solubility): 500 µM (≈ 162 µg/mL) | EC50 ([1]; Rattus norvegicus, PC-12; read-out: Potency (EC50)): 0.7 µM | Human Metabolic Potential [8]: low | half-life ([8]; liver microsomes, read-out: Human Metabolic Potential T1/2): > 3 h | Mouse Metabolic Potential [9]: low | half-life ([9]; liver microsomes, read-out: Mouse Metabolic Potential T1/2): > 3 h | Plasma Stability (Plasma stability): medium

C[C@@H]1C[C@H]2O[C@@H]2/C=C\C=C\C(=O)Cc2c(Cl)c(O)cc(O)c2C(=O)O1 [radicicol]
formation of protein aggregates ([3]; G93A SOD1 cells, 100 nM MG132): reduced formation of protein aggregates | cell viability of G93A SOD1 cells under MG132 ([1]; co-treatment with 100 nM MG132): increased cell viability in a dose-dependent manner | cell viability of G93A SOD1 cells under MG132 ([1]; co-treatment with 100 nM MG132; listed as Radicicol): protects | suppression of MG132-induced mutant SOD1 aggregation ([5]; G93A or G85R SOD1 cells, MG132 co-treatment): aggregates are reduced | proportion of cells with aggregates on co-treatment ([5]; PC12 cells expressing G85R or G93A mutant SOD1, MG132 co-treatment, 75% without): 25%
